Measurements from ChEMBL document CHEMBL1154476 (Eur J Med Chem, 2008).

Each compound was assayed against T1, Ribosyldihydronicotinamide dehydrogenase [quinone] (Homo sapiens, UniProt P16083) (assay: Displacement of [125I]iodomelatonin from MT3/QR2 melatonin binding site expressed in CHO cells).
T1 sequence (P16083 whole entry): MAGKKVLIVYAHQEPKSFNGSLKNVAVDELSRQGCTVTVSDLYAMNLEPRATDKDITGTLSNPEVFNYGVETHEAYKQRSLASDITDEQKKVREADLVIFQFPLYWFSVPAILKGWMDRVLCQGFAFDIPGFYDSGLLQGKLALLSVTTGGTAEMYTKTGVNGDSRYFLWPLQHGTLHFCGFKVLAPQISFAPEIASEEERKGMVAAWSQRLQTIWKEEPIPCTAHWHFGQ
Assay type: cell-based

SMILES	IC50 [nM]
COc1ccc2c(CCNC(=O)C3CCC3)cccc2c1	70.8
COc1ccc2[nH]cc(CCNC(C)=O)c2c1[N+](=O)[O-]	1.2
COc1ccc2occ(CCNC(C)=O)c2c1	64.6
COc1ccc2c(c1)c(CCNC(C)=O)cn2C	2.82
COc1ccc2cccc(CCNC(=O)c3ccccc3)c2c1	28.8
COc1ccc2cccc(CCNC(=O)C(C)C)c2c1	43.7
CC(=O)NCCc1c[nH]c2ccc([N+](=O)[O-])cc12	41.7
CS(=O)(=O)NCCc1cccc2ccccc12	28.2
COC(=O)Nc1ccc2occ(CCNC(C)=O)c2c1	15.8
COC(=O)Nc1ccc2occ(CCNC(=O)c3ccccc3)c2c1	67.6
CNC(=O)c1ccc2cccc(CNC(C)=O)c2c1	12
CC(=O)NCCc1cccc2ccc([S+](C)[O-])cc12 (centres undefined)	37.2
COC(=O)Nc1ccc2cccc(CNC(=O)C3CC3)c2c1	24
CSc1ccc2cccc(CCNC(C)=O)c2c1	18.2
CCOC(=O)c1[nH]c2ccc(OC)cc2c1CCNC(C)=O	3.02
COc1ccc2cccc(CC3=NC(=O)NC3=O)c2c1	61.7
COc1ccc2cccc(CCN3CCOC3=O)c2c1	14.1

SMILES	IC50 [nM]
COc1ccc2cccc(CCNC(=O)c3ccco3)c2c1	53.7
O=C(NCCc1cccc2ccc(O)cc12)c1ccco1	11
CC(=O)NCCc1cccc2ccc(S(N)(=O)=O)cc12	32.4
CC(C)(C)OC(=O)NCCc1cccc2ccc(O)cc12	51.3
CNS(=O)(=O)c1ccc2cccc(CCNC(=O)c3ccco3)c2c1	9.12
CC(=O)NCCc1cccc2ccc(S(C)(=O)=O)cc12	20.9
C=CCC(=O)NCCc1cccc2ccc(O)cc12	7.76
COC(=O)c1ccc2cccc(CNC(=O)c3ccco3)c2c1	52.5
C=CCC(=O)NCCc1coc2ccc(NC(=O)OC)cc12	11
COC(=O)c1ccc2occ(CCNC(=O)C3CCCC3)c2c1	18.2
COC(=O)c1ccc2occ(CCNC(C)=O)c2c1	14.1
NC(=O)c1ccc2occ(CCNC(=O)c3ccco3)c2c1	67.6
COc1ccc2cccc(CCNC(=O)CN3CCCC3=O)c2c1	61.7
COC(=O)Nc1ccc2[nH]c(I)c(CCNC(C)=O)c2c1	0.302
COC(=O)Nc1ccc2occ(CCNC(=O)C(C)C)c2c1	22.9
COC(=O)Nc1ccc2occ(CCNC(=O)c3ccco3)c2c1	56.2
COc1ccc2c(c(CCNC(C)=O)cn2C)c1[N+](=O)[O-]	0.309
